Measurements: patent publication US8889397B2, “Nucleotides for prevention and treatment of bacterial and fungal pathologies” (priority 2003, dated 2014)

What was measured:
[1] = test system: SM101; experiment: inhibition of bacterial growth by ODN (OD600 or viable cell count); assay type: cell-based, E. coli; settings: ODN 40 μM or 400 μM, 30° C., 2, 4 or 6 h
Experimental: Immediately after diluting the O/N cultures 1/50, ODN was added to final concentrations of 4 uM, 40 μM or 400 μM with equal volume water as a negative control, and incubated with shaking at 30° C. After 2, 4 or 6 h, the growth was measured by viable cell count, which was done by diluting the cultures and plating on LB plates with streptomycin.
The inhibition of bacterial growth by ODN was evaluated by examining the effect of ODN dosage on SM101 growth. In this study, an ODN having the sequence CTC ATA CTC T was added to the 1/50 diluted O/N SM101 cell cultures, at final concentration of 40 μM or […] with addition of equal volume water as a negative control, and incubated with shaking at 30° C. After 2, 4 or 6 h, the growth was measured by either the optical density at 600 nm (OD600) or viable cell count, which was done by diluting the cultures and plating them in triplicate on LB plates with streptomycin.

[2] = test system: FtsZ RNA; experiment: in vitro cleavage of FtsZ RNA by DNA enzyme in a cell-free system; assay type: biochemical; settings: 37° C., 100 nM template FtsZ RNA, 100 μM DNA enzyme, 10 mM MgCl2, pH 7.5; products 368 nt and 857 nt
Experimental: Lane 1 is a control reaction incubated for 2 hrs in the absence of DNA enzyme. S: substrate; P1 (857 nt) and P2 (368 nt): DNA enzyme digestion products.
The ability of the pssXGb(FtsZ-DZ) expression vector of the present invention to produce DNA enzyme molecules in bacterial cells was tested by evaluating the cleavage activity of the designed DNA enzyme in a cell-free system. The 1225 nt FtsZ RNA, produced by in vitro transcription, is used as a substrate and the cleavage assay is carried out at 37° C. for various period of time as indicated in a 10 μl reaction containing 10 mM MgCl2, 50 mM Tris-HCl, pH 7.5, 100 nM template FtsZ RNA, 100 μM DNA enzyme, and 10 units RNasin.

[3] = test system: K12; experiment: inhibition of bacterial growth by peptide-ODN conjugate (viable cell count); assay type: cell-based, E. coli; settings: conjugate 4 μM, 40 μM or 400 μM, 37° C., 2 hours
Experimental: The inhibition of bacterial growth by peptide-[…] conjugate was evaluated by examining the effect of conjugate dose on the ability of conjugate to inhibit K12 growth. In this study, a peptide-ODN conjugate having the sequence
was added to the 1/50 diluted O/N K12 cell cultures, and final concentration of 4 μM, 40 μM, or 400 μM, with addition of equal volume water as a negative control, and incubated with shaking at 37° C. Immediately after, diluting the O/N culture 1/50, peptide-ODN conjugate was added to final concentration of 4 μM, 40 μM, or […], with addition of equal volume water as a negative control, and incubated with shaking at 37° C. After 2 hours, growth was measured by viable cell count by diluting the cultures and plating in triplicate on LB plates. […] Reduction of Mouse Bacterial Load in Blood by Peptide-ODN Conjugate.

[4] = test system: DH5αPro; experiment: conditionally lethal effect of ODN expression plasmid in DH5αPro on LB media with or without aTc; assay type: cell-based; settings: DH5αPro carrying the plasmid; with or without 200 ng/ml aTc
Experimental: Colonies were grown in duplicate in LB plates with or without aTc. Positive clone (containing the pssXGb vector including the sequence CYGX080103) is marked by an arrow.
The CYGX080103 plasmid and the plasmid without ODN insert as negative control were transformed into DH5αPro and plated onto LB media with or without 200 ng/ml aTc. […] DH5αPro carrying plasmid without the ODN insert grows on both media (FIG. 10B).
Since the ssDNA expression library was constructed based on a tetracycline inducible vector, bacterial cells containing the ssDNA expression library were plated in duplicate in Luria broth (LB) plates in the presence or absence 200 ng/ml aTc. […] Plasmid DNA was extracted from the positive colony from the library screening, and the insert sequences determined by 3′ end single-pass sequencing. The insert generated by this set of experiments was named CYGX080103, with sequence of:
The antibacterial efficacy of the ODN CYGX080103 was further evaluated in two separate experiments. The first was designed to examine the conditionally lethal effect of the ODN expression plasmid in the host cell DH5αPro, the bacterial strain employed in the library screening. The second experiment was designed to study the effect of the ODN expression plasmid on other bacterial strains. […]

[5] = test system: E. coli XL10-gold(kan); experiment: growth of XL10-gold(kan) transformed with ODN expression plasmid; assay type: cell-based; settings: XL10-gold(kan) transformants; LB with chloramphenicol, 37° C. O/N
Experimental: The transformants were plated on LB media with chloramphenicol and incubated at 37° C.
The antibacterial efficacy of the ODN CYGX080103 was further evaluated in two separate experiments. The first was designed to examine the conditionally lethal effect of the ODN expression plasmid in the host cell DH5αPro, the bacterial strain employed in the library screening. The second experiment was designed to study the effect of the ODN expression plasmid on other bacterial strains. In the first study, the ODN expression plasmid and the plasmid without ODN insert as negative control were transformed into DH5αPro and plated onto LB media with or without 200 ng/ml aTc. […] DH5αPro cells carrying the plasmid without the ODN insert grow on both media (FIG. 10B). In the second study, the ODN expression plasmid and the plasmid without ODN insert were transformed into E. coli XL10-gold(kan). The resulted transformants were plated on LB media with chloramphenicol and incubated at 37° C.
In this study, the ODN expression plasmid As080103, having the sequence CYGX080103 listed above, and plasmid pssxGb without ODN insert as negative control, were transformed into E. coli XL10-goldokan). The resulting cell cultures were plated on LB media with chloramphenicol and incubated at 37° C.

5′(CTC ATA CTC T)3′ (DNA CTCATACTCT; chemistry not given here) [CYGXacpP, ODN targeting the bacterial essential fatty acid biosynthesis gene acpP]
cell growth inhibited [1]: 86-96%

5′-GTTTCGAAGGCTAGCTACAACGATCATCCAG-3′ (listed as DNA, chemistry not fully specified) [CYGXFtsZDZ, 31 nt 10-23 DNA enzyme targeted against the GU site at position 880 of FtsZ mRNA]
cleavage of FtsZ RNA [2]: effectively cleave the FtsZ RNA in as short a time as 0.5 hr

KFFKFFKFFK-CTC ATA CTC T (KFFKFFKFFK peptide conjugated to PNA) [peptide-ODN conjugate, peptide-PNA conjugate]
cell growth inhibited [3]: 82-99.8%

B1: 5′-CTTTCAACAGTTTTGATGACCTTTGCTGACCATACAATTGCGATATCGTGGGGAGTGAGAG-3′ (nucleic acid)
DNA: CTTTCAACAGTTTTGATGACCTTTGCTGACCATACAATTGCGATATCGTGGGGAGTGAGAG
modifications: expressed or natural sequence
notes: ODN insert of the positive clone from ssDNA expression library screening
growth on LB media [4]: grow normally on the media without aTc but not on media with aTc | growth on LB media [5]: no XL10-gold(kan) carrying ODN expression plasmid grew
